Experiments:
Test in all cases: normalised viability (% of control), CellTiter-Blue; higher = more viable cells (about 100 = DMSO control)
Conditions in all cases: incubation time: 72 h
MFM-223 = tested on: MFM-223
Method in brief: (§1)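 384-well plates were pre-loaded with compound in 5 µl medium before 20 µl of breast cancer cell suspension was seeded. Following 72 h incubation, 2.5 µl CellTiter-Blue reagent was added for 2 h at 37 °C. Fluorescence was read at 560/590 nm and plates were normalised to vehicle (100) and a positive kill control (0), checked by Z'-factor. Normalised viability is reported at a single listed concentration of the series.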

CAL-148 [1] = tested on: CAL-148
Method in brief: as §1

BT-474 = tested on: BT-474
Method in brief: as §1

Hs578T [2] = tested on: Hs578T
Method in brief: as §1

CAL-51 [3] = tested on: CAL-51
Method in brief: as §1

HCC1599 [4] = tested on: HCC1599
Method in brief: as §1

BT-549 = tested on: BT-549
Method in brief: as §1

HDQ-P1 [5] = tested on: HDQ-P1
Method in brief: as §1

HCC1937 = tested on: HCC1937
Method in brief: as §1

HCC1143 = tested on: HCC1143
Method in brief: as §1

MDA-MB-453 = tested on: MDA-MB-453
Method in brief: as §1

MDA-MB-468 [6] = tested on: MDA-MB-468
Method in brief: as §1

MDA-MB-436 [7] = tested on: MDA-MB-436
Method in brief: as §1

DU-4475 = tested on: DU-4475
Method in brief: as §1

SK-BR-3 = tested on: SK-BR-3
Method in brief: as §1

MDA-MB-231 = tested on: MDA-MB-231
Method in brief: as §1

CAL-120 [8] = tested on: CAL-120
Method in brief: as §1

CAL-85-1 [9] = tested on: CAL-85-1
Method in brief: as §1

CAL-148 [10] = tested on: CAL-148; remark: listed apart in the source
Method in brief: as §1

Hs578T [11] = tested on: Hs578T; remark: listed apart in the source
Method in brief: as §1

CAL-51 [12] = tested on: CAL-51; remark: listed apart in the source
Method in brief: as §1

HCC1599 [13] = tested on: HCC1599; remark: listed apart in the source
Method in brief: as §1

HDQ-P1 [14] = tested on: HDQ-P1; remark: listed apart in the source
Method in brief: as §1

MDA-MB-468 [15] = tested on: MDA-MB-468; remark: listed apart in the source
Method in brief: as §1

MDA-MB-436 [16] = tested on: MDA-MB-436; remark: listed apart in the source
Method in brief: as §1

CAL-120 [17] = tested on: CAL-120; remark: listed apart in the source
Method in brief: as §1

CAL-85-1 [18] = tested on: CAL-85-1; remark: listed apart in the source
Method in brief: as §1

CS(=O)(=O)N1CCN(Cc2cc3nc(-c4cccc5[nH]ncc45)nc(N4CCOCC4)c3s2)CC1 [GDC-0941]
Conditions	normalised viability [%]
BT-474, 10 nM	109
BT-474, 1000 nM	41.3
BT-474, 10000 nM	11
BT-549, 10 nM	85.6
BT-549, 1000 nM	60.9
BT-549, 10000 nM	14.1
CAL-51 [3], 3 nM	117
CAL-51 [3], 30 nM	106
CAL-51 [3], 100 nM	89.4
CAL-51 [12], 10 nM	109
CAL-85-1 [9], 30 nM	77.7
CAL-85-1 [9], 100 nM	83.5
CAL-85-1 [18], 10 nM	90.7
CAL-120 [8], 10 nM	89.6
CAL-120 [8], 1000 nM	53.7
CAL-120 [8], 10000 nM	20.8
CAL-120 [17], 100 nM	75.5
CAL-148 [1], 3 nM	82.4
CAL-148 [1], 30 nM	85.8
CAL-148 [1], 100 nM	83.2
CAL-148 [10], 10 nM	85.6
DU-4475, 3 nM	107
DU-4475, 30 nM	98.8
DU-4475, 100 nM	95.5
HCC1143, 10 nM	73.2
HCC1143, 1000 nM	52.1
HCC1143, 10000 nM	21.2
HCC1599 [4], 10 nM	96.8
HCC1599 [4], 1000 nM	55
HCC1599 [4], 10000 nM	28
HCC1599 [13], 100 nM	69.2
HCC1937, 10 nM	114
HCC1937, 1000 nM	60.8
HCC1937, 10000 nM	25.5
HDQ-P1 [5], 3 nM	93.6
HDQ-P1 [5], 30 nM	93.8
HDQ-P1 [5], 100 nM	69.3
HDQ-P1 [14], 10 nM	101
Hs578T [2], 10 nM	112
Hs578T [2], 1000 nM	62.3
Hs578T [2], 10000 nM	19.6
Hs578T [11], 100 nM	89.1
MDA-MB-231, 10 nM	90.8
MDA-MB-231, 1000 nM	63.4
MDA-MB-231, 10000 nM	35.2
MDA-MB-436 [7], 10 nM	97.7
MDA-MB-436 [7], 1000 nM	68.1
MDA-MB-436 [7], 10000 nM	22.9
MDA-MB-436 [16], 100 nM	91.6
MDA-MB-453, 3 nM	109
MDA-MB-453, 30 nM	85.1
MDA-MB-453, 100 nM	76.2
MDA-MB-468 [6], 10 nM	108
MDA-MB-468 [6], 1000 nM	62.8
MDA-MB-468 [6], 10000 nM	17
MDA-MB-468 [15], 100 nM	84.2
MFM-223, 10 nM	95.7
MFM-223, 1000 nM	43.5
MFM-223, 10000 nM	13.1
SK-BR-3, 10 nM	92.3
SK-BR-3, 1000 nM	24.1
SK-BR-3, 10000 nM	8.8

CC[C@@]1(O)C(=O)OCc2c1cc1n(c2=O)Cc2cc3c(CN(C)C)c(O)ccc3nc2-1 [Topotecan]
Conditions	normalised viability [%]
BT-474, 1 nM	127
BT-474, 100 nM	112
BT-474, 1000 nM	77.9
BT-549, 1 nM	85.9
BT-549, 100 nM	75.3
BT-549, 1000 nM	62.9
CAL-51 [3], 0.3 nM	99
CAL-51 [3], 3 nM	96.5
CAL-51 [3], 10 nM	96.8
CAL-51 [12], 1 nM	96.5
CAL-85-1 [9], 0.3 nM	93.2
CAL-85-1 [9], 3 nM	85.2
CAL-85-1 [9], 10 nM	96.9
CAL-85-1 [18], 1 nM	91.2
CAL-120 [8], 1 nM	86.2
CAL-120 [8], 100 nM	54.8
CAL-120 [8], 1000 nM	32.1
CAL-120 [17], 10 nM	76.4
CAL-148 [1], 0.3 nM	84.5
CAL-148 [1], 3 nM	111
CAL-148 [1], 10 nM	96.5
CAL-148 [10], 1 nM	96.4
DU-4475, 0.3 nM	88.4
DU-4475, 3 nM	88.4
DU-4475, 10 nM	78.5
HCC1143, 1 nM	79.9
HCC1143, 100 nM	79.1
HCC1143, 1000 nM	41.9
HCC1599 [4], 1 nM	91.5
HCC1599 [4], 100 nM	82.3
HCC1599 [4], 1000 nM	64
HCC1599 [13], 10 nM	109
HCC1937, 1 nM	96.9
HCC1937, 100 nM	40.6
HCC1937, 1000 nM	26.2
HDQ-P1 [5], 0.3 nM	112
HDQ-P1 [5], 3 nM	105
HDQ-P1 [5], 10 nM	105
HDQ-P1 [14], 1 nM	114
Hs578T [2], 1 nM	132
Hs578T [2], 100 nM	102
Hs578T [2], 1000 nM	69.4
Hs578T [11], 10 nM	101
MDA-MB-231, 1 nM	97
MDA-MB-231, 100 nM	80.5
MDA-MB-231, 1000 nM	59.8
MDA-MB-436 [7], 1 nM	110
MDA-MB-436 [7], 100 nM	75.5
MDA-MB-436 [7], 1000 nM	44.6
MDA-MB-436 [16], 10 nM	107
MDA-MB-453, 0.3 nM	103
MDA-MB-453, 3 nM	107
MDA-MB-453, 10 nM	102
MDA-MB-468 [6], 1 nM	108
MDA-MB-468 [6], 100 nM	45.6
MDA-MB-468 [6], 1000 nM	12.8
MDA-MB-468 [15], 10 nM	93
MFM-223, 1 nM	105
MFM-223, 100 nM	88.2
MFM-223, 1000 nM	53.5
SK-BR-3, 1 nM	105
SK-BR-3, 100 nM	48.7
SK-BR-3, 1000 nM	24.8
